Source: US20140227335A1 (priority 2012, published 2014)
Like-named read-outs stand apart in the source and are kept apart here.

What was measured:
[1] = test system: VSV-Gpp; assay type: cell-based, HIV lentivirus pseudotyped with VSV-G
[2] = test system: HIV-1 RU132; test: Anti-HIV efficacy in fresh human PBMC (reverse transcriptase activity); assay type: cell-based; conditions: Human immunodeficiency virus 1, PBMC, 168 h; RU132 (clade G, R5); PBMCs, MOI = 0.1, 7 days
[3] = test system: HIV-1 (R5 JR-CSF); test: Antiviral effect of PD before, during and after HIV-1 exposure (TZM-bl); assay type: cell-based
[4] = test system: HIV-1 93TH053; test: HIV infectivity assay in TZM-bl cells; assay type: cell-based; conditions: 93TH053 (clade E, X4); for IC50: Human immunodeficiency virus 1, TZM-bl
[5] = test system: VSV-Gpp
[6] = test system: HIV-1 92UG029; test: HIV infectivity assay in TZM-bl cells; assay type: cell-based; conditions: 92UG029 (clade A, X4); for IC50: Human immunodeficiency virus 1, TZM-bl
[7] = Primary cells toxicity testing (LDH); assay type: cell-based; conditions: human, primary CD4+ T-lymphocytes, macrophages and dendritic cells, up to 14 days
Method: Increasing concentrations were incubated with primary CD4^+ T-lymphocytes, macrophages and dendritic cells at 37° C. and the amounts of lactate dehydrogenase (LDH) present in the culture media were quantified after 0, 7 and 14 days. Error bars represent the standard deviation from two independent experiments.
Primary cells were seeded at 6×10^3 cells/well in flat bottom 96-well plates in triplicates in the presence of increasing concentrations of PD. We used the permeabilization agent saponin (0.1%) as positive control. After 0, 7 and 14 days, the amounts of lactate dehydrogenase (LDH) in the cell culture media were quantified using the LDH Cytotoxicity Assay Kit (Cayman Chemical, Ann Arbor, Mich.).
Cell death can occur either by apoptosis or by necrosis. Necrosis is accompanied by mitochondrial swelling and increased plasma membrane permeability, whereas apoptosis involves an articulated breakdown of the cell into membrane-bound apoptotic bodies. Lactate dehydrogenase (LDH) is a soluble cytosolic enzyme that is released into the culture medium following loss of membrane integrity resulting from either apoptosis or necrosis. LDH activity, therefore, can be used as an indicator of cell membrane integrity and serves as a general means to assess cytotoxicity resulting from chemical compounds or environmental toxic factors. […]

[8] = test system: primary isolates of HIV and SIV; test: organism not typed; assay type: cell-based, HIV-1, HIV-2

N=C1Sc2ccccc2C2=NCCCN12 [PD, PD 404,182]
VSV-Gpp infectivity remaining [1]: 0.1%
effect of fetal bovine serum on PD's antiviral activity [1]: no inhibitory effect
inhibition of VSV-Gpp supernatant infectivity relative to DMSO-treated virus [1]: ~1000 fold
sensitivity of virus to PD in conditioned medium [1]: significantly less sensitive to inactivation by PD
IC50 [2]: 200 nM
IC90 [2]: 530 nM
antiviral effect, PD added after virus inoculation ([3]; 10 μM PD, 1, 2, 4 and 8 h post treatment): loses its antiviral effect
antiviral effect, extended preincubation of PD with cells ([3]; 10 μM PD, >16 h prior to virus inoculation): significantly reduces the compound's antiviral efficacy
antiviral effect, PD added together with the virus ([3]; 10 μM PD, time zero): significantly inhibits HIV-1 infection
antiviral effect, PD added before the virus ([3]; 10 μM PD, up to 8 h before the addition of the virus): retains its full potency
time antiviral activity is retained in cell culture prior to the addition of HIV-1 ([3]; cell culture at 37° C.): at least 8 hours
IC90 ([4]; PD in DMEM + 10% FBS): 5300 ± 300 nM
IC90 ([4]; PD in cervical fluids): 6400 ± 400 nM
IC90 ([4]; PD in seminal plasma): 6650 ± 480 nM
IC50 ([4]; PD in DMEM + 10% FBS): 1400 nM
IC50 ([4]; PD in cervical fluids): 1800 nM
IC50 ([4]; PD in seminal plasma): 1670 nM
stability in acidic buffer ([5]; pH 4): highly stable
activity loss ([5]; pH 8): no activity loss
antiviral activity lost ([5]; pH 8): ~20%
activity loss ([5]; pH 10): ~20%
antiviral activity lost ([5]; pH 10): ~50%
IC90 ([6]; PD in DMEM + 10% FBS): 4400 ± 200 nM
IC90 ([6]; PD in cervical fluids): 5300 ± 300 nM
IC90 ([6]; PD in seminal plasma): 4710 ± 260 nM
IC50 ([6]; PD in DMEM + 10% FBS): 1180 nM
IC50 ([6]; PD in cervical fluids): 1470 nM
IC50 ([6]; PD in seminal plasma): 1330 nM
CC50 at 14 days [7]: > 300000 nM
effect of seminal plasma on PD's anti-HIV activity [8]: does not negatively impact PD's anti-HIV activity
IC50 ([8]; Human immunodeficiency virus 1, TZM-bl, read-out: IC50 range over tested subtypes of HIV-1): 420 to 1960 nM
IC90 ([8]; Human immunodeficiency virus 1, TZM-bl, read-out: IC90 range over tested subtypes of HIV-1): 1580 to 7190 nM
IC50 ([8]; TZM-bl): ~1000 nM
IC50 ([8]; TZM-bl, read-out: IC50 range): 330 to 1800 nM
IC90 ([8]; TZM-bl, read-out: IC90 range): 1400 to 6600 nM
IC50 ([8]; read-out: IC50 range): 610 to 2300 nM
IC90 ([8]; read-out: IC90 range): 1800 to 7500 nM
